Test results reported in patent publication US4401660A, “Ester derivatives of 5-O-mycaminosyl tylonolide and method of using same” (Eli Lilly and Company, priority 1981, dated 1983).
Like-named read-outs stand apart in the source and are kept apart here.

What was measured:
[1] = system: Haemophilus influenzae R252; assay: MIC, standard agar-dilution assay (Table II); assay type: cell-based; parameters: unit not given here; settings: Haemophilus influenzae R252, ampicillin-resistant strain
Experimental: (§1) The MIC's in Table II were determined by standard agar-dilution assays. The MIC's in Table III were obtained using a conventional broth-dilution microtiter test.

[2] = system: Staphylococcus epidermidis EPI2; assay: MIC, standard agar-dilution assay (Table II); assay type: cell-based; parameters: unit not given here
Experimental: as §1

[3] = system: Staphylococcus aureus X1.1; assay: MIC, standard agar-dilution assay (Table II); assay type: cell-based; parameters: unit not given here
Experimental: as §1

[4] = system: Staphylococcus epidermidis EPI1; assay: MIC, standard agar-dilution assay (Table II); assay type: cell-based; parameters: unit not given here
Experimental: as §1

[5] = system: Streptococcus Group D 9960; assay: MIC, standard agar-dilution assay (Table II); assay type: cell-based; parameters: unit not given here
Experimental: as §1

[6] = system: Staphylococcus aureus V41; assay: MIC, standard agar-dilution assay (Table II); assay type: cell-based; parameters: unit not given here; settings: Staphylococcus aureus V41, penicillin-resistant strain
Experimental: as §1

[7] = system: Haemophilus influenzae Holt; assay: MIC, standard agar-dilution assay (Table II); assay type: cell-based; parameters: unit not given here; settings: ampicillin-sensitive strain
Experimental: as §1

[8] = system: Streptococcus pyogenes C203; assay: MIC, standard agar-dilution assay (Table II); assay type: cell-based; parameters: unit not given here
Experimental: as §1

[9] = system: Staphylococcus aureus S13E; assay: MIC, standard agar-dilution assay (Table II); assay type: cell-based; parameters: unit not given here
Experimental: as §1

[10] = system: Streptococcus Group D X66; assay: MIC, standard agar-dilution assay (Table II); assay type: cell-based; parameters: unit not given here
Experimental: as §1

[11] = system: Streptococcus pneumoniae Park I; assay: MIC, standard agar-dilution assay (Table II); assay type: cell-based; parameters: unit not given here
Experimental: as §1

[12] = system: Staphylococcus aureus X400; assay: MIC, standard agar-dilution assay (Table II); assay type: cell-based; parameters: unit not given here; settings: Staphylococcus aureus X400, methicillin-resistant strain
Experimental: as §1

[13] = system: Streptococcus pyogenes C203; assay: ED50 in mice with experimental infections (Table IV); assay type: in vivo; settings: Streptococcus pyogenes, doses given 1 and 4 hours postinfection
Experimental: The OMT ester derivatives of this invention have shown in vivo antimicrobial activity against experimental bacterial infections caused by gram-positive bacteria. When two doses of test compound were administered to mice with experimental infections, the activity observed was measured as an ED50 value [effective dose in mg/kg to protect 50% of the test animals: see Warren Wick, et al., J. Bacteriol. 81, 233-235 (1961)].
^a mg/kg × 2; doses given 1 and 4 hours postinfection

[14] = system: Pasteurella haemolytica 22C; assay: MIC, broth-dilution microtiter test (Table III); assay type: cell-based; parameters: unit not given here
Experimental: as §1

[15] = system: Pasteurella multocida 22A; assay: MIC, broth-dilution microtiter test (Table III); assay type: cell-based; parameters: unit not given here
Experimental: as §1

[16] = system: Pasteurella multocida 68C; assay: MIC, broth-dilution microtiter test (Table III); assay type: cell-based; parameters: unit not given here
Experimental: as §1

Staphylococcus aureus = assay: MIC, broth-dilution microtiter test (Table III); assay type: cell-based; parameters: unit not given here
Experimental: as §1

Streptococcus sp. 80 = assay: MIC, broth-dilution microtiter test (Table III); assay type: cell-based; parameters: unit not given here
Experimental: as §1

[17] = system: Pasteurella multocida 17E; assay: MIC, broth-dilution microtiter test (Table III); assay type: cell-based; parameters: unit not given here; settings: bovine isolate
Experimental: as §1

Mycoplasma hyorhinis = assay: MIC, broth-dilution microtiter test (Table III); assay type: cell-based; parameters: unit not given here
Experimental: as §1

Mycoplasma gallisepticum = assay: MIC, broth-dilution microtiter test (Table III); assay type: cell-based; parameters: unit not given here
Experimental: as §1

[18] = system: Pasteurella multocida 40G; assay: MIC, broth-dilution microtiter test (Table III); assay type: cell-based; parameters: unit not given here
Experimental: as §1

[19] = system: Pasteurella haemolytica 41D; assay: MIC, broth-dilution microtiter test (Table III); assay type: cell-based; parameters: unit not given here
Experimental: as §1

[20] = system: Pasteurella multocida 60A; assay: MIC, broth-dilution microtiter test (Table III); assay type: cell-based; parameters: unit not given here; settings: avian isolate
Experimental: as §1

[21] = system: Pasteurella haemolytica 23C; assay: MIC, broth-dilution microtiter test (Table III); assay type: cell-based; parameters: unit not given here
Experimental: as §1

Mycoplasma synoviae = assay: MIC, broth-dilution microtiter test (Table III); assay type: cell-based; parameters: unit not given here
Experimental: as §1

[22] = C203, oral, read-out: ED50, Oral
[23] = C203, sc, subcutaneous, read-out: ED50, Subcutaneous

| Structure (SMILES) | minimal inhibitory concentration (MIC) [1] | minimal inhibitory concentration (MIC) [2] | minimal inhibitory concentration (MIC) [3] | minimal inhibitory concentration (MIC) [4] | minimal inhibitory concentration (MIC) [5] | minimal inhibitory concentration (MIC) [6] | minimal inhibitory concentration (MIC) [7] | minimal inhibitory concentration (MIC) [8] | minimal inhibitory concentration (MIC) [9] | minimal inhibitory concentration (MIC) [10] | minimal inhibitory concentration (MIC) [11] | minimal inhibitory concentration (MIC) [12] | minimal inhibitory concentration (MIC) [14] | minimal inhibitory concentration (MIC) (Staphylococcus aureus) | minimal inhibitory concentration (MIC) (Streptococcus sp. 80) | minimal inhibitory concentration (MIC) [17] | minimal inhibitory concentration (MIC) (Mycoplasma hyorhinis) | minimal inhibitory concentration (MIC) (Mycoplasma gallisepticum) | minimal inhibitory concentration (MIC) [20] | minimal inhibitory concentration (MIC) (Mycoplasma synoviae) | other results |
| --- | --- | --- | --- | --- | --- | --- | --- | --- | --- | --- | --- | --- | --- | --- | --- | --- | --- | --- | --- | --- | --- |
| CCC1OC(=O)CC(O)C(C)C(OC2OC(C)C(O)C(N(C)C)C2OC(=O)Cc2ccccc2)C(CC=O)CC(C)C(=O)C=CC(C)=CC1CO (stereo not drawn) [Compound 52, 2'-O-(Phenylacetyl)-OMT] | 0.5 | 2 | 0.5 | 0.5 | 1 | 1 | 2 | 0.25 | 1 | 0.5 | 0.06 | 2 | 25 | 1.56 | 0.78 | 3.12 | 3.12 | 3.12 | 1.56 | 1.56 | ED50 [13, 22]: 92 mg/kg; ED50 [13, 23]: 2.1 mg/kg; minimal inhibitory concentration (MIC) [15]: 3.12; minimal inhibitory concentration (MIC) [16]: 6.25; minimal inhibitory concentration (MIC) [18]: 3.12; minimal inhibitory concentration (MIC) [19]: 6.25; minimal inhibitory concentration (MIC) [21]: 12.5 |
| CCC(=O)OC1C(C)OC(OC2C(CC=O)CC(C)C(=O)C=CC(C)=CC(CO)C(CC)OC(=O)CC(O)C2C)C(OC(=O)CC)C1N(C)C (stereo not drawn) [Compound 4] | 4 | 4 | 2 | 1 | 2 | 4 | 4 | 0.5 | 2 | 1 | 8 | 2 | 6.25 | 1.56 | < 0.78 | 3.12 | 1.56 | 0.39 | 3.12 | 0.78 | ED50 [13, 22]: 167 mg/kg; ED50 [13, 23]: 5.7 mg/kg; minimal inhibitory concentration (MIC) [15]: 3.12; minimal inhibitory concentration (MIC) [16]: 1.56; minimal inhibitory concentration (MIC) [18]: 6.25; minimal inhibitory concentration (MIC) [19]: 12.5; minimal inhibitory concentration (MIC) [21]: 6.25 |
| CCC(=O)OC1C(OC2C(CC=O)CC(C)C(=O)C=CC(C)=CC(COC(C)=O)C(CC)OC(=O)CC(O)C2C)OC(C)C(O)C1N(C)C (stereo not drawn) [Compound 11] | 4 | 0.5 | 0.5 | 0.5 | 1 | 1 | 4 | 0.5 | 0.5 | 1 | 0.25 | 1 | – | 6.25 | 1.56 | 25 | 12.5 | 0.39 | 50 | 0.39 | ED50 [13, 22]: > 150 mg/kg; ED50 [13, 23]: 5.3 mg/kg |
| CCC1OC(=O)CC(O)C(C)C(OC2OC(C)C(OC(=O)c3ccccc3)C(N(C)C)C2OC(=O)c2ccccc2)C(CC=O)CC(C)C(=O)C=CC(C)=CC1CO (stereo not drawn) [Compound 5, 2',4'-Di-O-benzoyl-OMT] | 64 | 4 | 8 | 8 | 8 | 32 | 64 | 2 | 32 | 8 | 0.5 | 64 | > 50 | 6.25 | 3.12 | 50 | 50 | 12.5 | 50 | 12.5 | minimal inhibitory concentration (MIC) [15]: > 50; minimal inhibitory concentration (MIC) [16]: 25; minimal inhibitory concentration (MIC) [18]: 50; minimal inhibitory concentration (MIC) [19]: > 50; minimal inhibitory concentration (MIC) [21]: > 50 |
| CCC1OC(=O)CC(O)C(C)C(OC2OC(C)C(O)C(N(C)C)C2OC(C)=O)C(CC=O)CC(C)C(=O)C=CC(C)=CC1COC(=O)c1ccc2ccccc2c1 (stereo not drawn) [Compound 58] | 1 | 0.5 | 0.25 | 0.25 | 0.5 | 0.5 | 2 | 0.125 | 0.25 | 0.25 | 0.03 | 0.5 | 12.5 | 1.56 | 0.78 | 3.12 | 6.25 | < 0.05 | 3.12 | 0.78 | minimal inhibitory concentration (MIC) [15]: 6.25; minimal inhibitory concentration (MIC) [16]: 1.56; minimal inhibitory concentration (MIC) [18]: 3.12; minimal inhibitory concentration (MIC) [19]: 6.25; minimal inhibitory concentration (MIC) [21]: 6.25 |
| CCC1OC(=O)CC(O)C(C)C(OC2OC(C)C(O)C(N(C)C)C2OC(C)=O)C(CC=O)CC(C)C(=O)C=CC(C)=CC1COC(=O)Cc1ccc([N+](=O)[O-])cc1 (stereo not drawn) [Compound 64] | 1 | 0.25 | 0.125 | 0.125 | 0.125 | 0.125 | 1 | 0.06 | 0.125 | 0.125 | 0.015 | 0.125 | 3.12 | 0.78 | < 0.05 | 1.56 | 0.78 | 0.097 | 1.56 | < 0.05 | minimal inhibitory concentration (MIC) [15]: 1.56; minimal inhibitory concentration (MIC) [16]: 1.56; minimal inhibitory concentration (MIC) [18]: 1.56; minimal inhibitory concentration (MIC) [19]: 3.12; minimal inhibitory concentration (MIC) [21]: 3.12 |
